According to PubChem BioAssay (NCI):
“And” between values parts separate entries of the source, which are not always exact repeats. Equal values may be shown once.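 Assay format: 96-well plates, 48-hour exposure. The concentration for 50% growth inhibition is given as GI50. TGI marks complete inhibition of growth.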

Test system: UACC-257 melanoma
Assay: growth of human tumour cells (NCI), 48 h

Which TGI does the source give for `O=C(CCCn1ccnc1[N+](=O)[O-])NCCn1cncc1[N+](=O)[O-]` here?
The TGI was over 100 µM.

`Cn1cc(C2=C(c3ccc4ccccc4c3)C(=O)NC2=O)c2ccccc21` was tested. Which GI50 did it give?
Its GI50 is over 25 µM.

And the TGI?
The TGI was over 25 µM.

Which GI50 does the source give for `O=C(OCc1ccc2cccc(O)c2n1)N1CCN(C(=O)c2cc3cc(F)ccc3[nH]2)CC1` here?
Its GI50 is 1.46 µM.

What about the TGI of the same molecule?
The TGI was 2.89 µM.

Which GI50 does the source give for `C[As](C)SC1OC(CO)C(O)C1O` (stereo not drawn) here?
The GI50 was 1.72 µM.

And the TGI?
Its TGI is 13.6 µM.

What does the source list for `Cn1c(=O)c2c(nc(Nc3cc(=O)[nH]c(=O)[nH]3)n2Cc2ccccc2)n(C)c1=O`?
GI50: > 100 µM; TGI: > 100 µM

Which GI50 does the source give for `COc1ccc2c(c1)CCC1C2CC[C@@]2(C)C1CC1=CC(COC(C)=O)C3C(=O)c4ccccc4C(=O)C3C12` (stereo partly drawn) here?
Its GI50 is over 100 µM.

What about the TGI of the same molecule?
Its TGI is over 100 µM.

Which results are given for `C=C(F)C(=O)N1CCN(c2nc(OC[C@@H]3CCCN3C)nc3c2CCN(c2cccc4cccc(Cl)c24)C3)C[C@@H]1CC#N`?
GI50: 1.57 µM; TGI: 3.1 µM

`Cc1c2cccnc2c(C)c2c1c1cc(CO)ccc1n2C` was tested. Which GI50 did it give?
The GI50 was 1.51 µM.

And the TGI?
Its TGI is 4.25 µM.

Which GI50 does the source give for `CC/C(=C(/c1ccc(OCCN(C)C)cc1)c1ccc(OC(=O)CCCCC(=O)c2c(C)[nH]c(/C=C3\N=C(c4ccc[nH]4)C=C3OC)c2C)cc1)c1ccccc1` here?
Its GI50 is 12 µM.

And the TGI?
The TGI was 28.9 µM.

With `CC[C@]12C=CCN3CC[C@@]4(c5ccc(OC)cc5N(C)[C@H]4[C@@](O)(C(=O)OC)[C@@H]1OC(=O)CCC[P+](c1ccccc1)(c1ccccc1)c1ccccc1)[C@@H]32` as the molecule, how does the GI50 read?
Its GI50 is 0.364 µM and 0.275 µM.

What about the TGI of the same molecule?
Its TGI is 1.82 µM and 0.94 µM.

How did the GI50 turn out when `CC(=O)OC1Oc2ccccc2-c2oc(=O)c(-c3cc(=O)oc4cc(O)ccc34)cc21` (stereo not drawn) was run?
The GI50 was 23.9 µM.

What about the TGI of the same molecule?
The TGI was 79 µM.

Which GI50 does the source give for `CC(C)(C)C(=O)OCOP(=O)(OCOC(=O)C(C)(C)C)C1CCCN(O)C1=O` (stereo not drawn) here?
The GI50 was 1.19 µM.

And the TGI?
The TGI was 13.5 µM.

Which GI50 does the source give for `CC(SC(C)C(=O)N/N=C/c1cccc(Cl)c1)C(=O)N/N=C\c1cccc(Cl)c1` (stereo not drawn) here?
Its GI50 is 32.3 µM.

And the TGI?
The TGI was over 100 µM.

`CCOC(=O)/C=C/C(C(=O)/C=C/c1ccc(OC2CCCCO2)c(OC)c1)=C(O)\C=C\c1ccc(OC2CCCCO2)c(OC)c1` (stereo not drawn) was tested. Which GI50 did it give?
The GI50 was 19.8 µM.

And the TGI?
Its TGI is 78.4 µM.

For `Cc1ccc(Cl)cc1Nc1nc(C(F)(F)F)ccc1C(=O)N1CCN(c2ccc(F)cc2)CC1`, which GI50 is on record?
Its GI50 is 19.7 µM.

What about the TGI of the same molecule?
Its TGI is 46.5 µM.

Which GI50 does the source give for `COC(=O)c1cc2c(cc1O)[C@@H](NC(C)=O)CCc1cc(OC)c(OC)c(OC)c1-2` here?
The GI50 was 0.0274 µM.

What about the TGI of the same molecule?
The TGI was over 100 µM.

What does the source list for `CC1OC2CC(=O)OC2C2=C1C(=O)c1c(O)cccc1C2=O` (stereo not drawn)?
GI50: 0.0748 µM; TGI: 0.217 µM

For `C=C(C)[C@@]12OC3(/C=C/C=C/CCCCC)O[C@@H]1[C@@H]1[C@@H]4O[C@]4(CO)[C@@H](O)[C@]4(O)C(=O)C(C)=C[C@H]4[C@@]1(O3)[C@H](C)[C@H]2OC(=O)c1ccccc1`, which GI50 is on record?
Its GI50 is 8.13 µM.

What about the TGI of the same molecule?
The TGI was 21.5 µM.

Test system: MOLT-4 leukemia
Assay: growth of human tumour cells (NCI), 48 h

For `O=C(CCCn1ccnc1[N+](=O)[O-])NCCn1cncc1[N+](=O)[O-]`, which TGI is on record?
Its TGI is over 100 µM.

Which results are given for `Cn1cc(C2=C(c3ccc4ccccc4c3)C(=O)NC2=O)c2ccccc21`?
GI50: > 20.1 µM; TGI: > 25 µM

`O=C(OCc1ccc2cccc(O)c2n1)N1CCN(C(=O)c2cc3cc(F)ccc3[nH]2)CC1` was tested. Which GI50 did it give?
Its GI50 is 0.334 µM.

And the TGI?
Its TGI is 1.37 µM.

With `C[As](C)SC1OC(CO)C(O)C1O` (stereo not drawn) as the molecule, how does the GI50 read?
Its GI50 is 0.174 µM.

What about the TGI of the same molecule?
Its TGI is 0.957 µM.

With `Cn1c(=O)c2c(nc(Nc3cc(=O)[nH]c(=O)[nH]3)n2Cc2ccccc2)n(C)c1=O` as the molecule, how does the GI50 read?
The GI50 was over 100 µM.

And the TGI?
The TGI was over 100 µM.

How did the GI50 turn out when `COc1ccc2c(c1)CCC1C2CC[C@@]2(C)C1CC1=CC(COC(C)=O)C3C(=O)c4ccccc4C(=O)C3C12` (stereo partly drawn) was run?
The GI50 was over 100 µM.

And the TGI?
Its TGI is over 100 µM.

How did the GI50 turn out when `C=C(F)C(=O)N1CCN(c2nc(OC[C@@H]3CCCN3C)nc3c2CCN(c2cccc4cccc(Cl)c24)C3)C[C@@H]1CC#N` was run?
Its GI50 is 0.573 µM.

What about the TGI of the same molecule?
Its TGI is 2.71 µM.

For `Cc1c2cccnc2c(C)c2c1c1cc(CO)ccc1n2C`, which GI50 is on record?
Its GI50 is 1.64 µM.

What about the TGI of the same molecule?
The TGI was 22.5 µM.

`CC/C(=C(/c1ccc(OCCN(C)C)cc1)c1ccc(OC(=O)CCCCC(=O)c2c(C)[nH]c(/C=C3\N=C(c4ccc[nH]4)C=C3OC)c2C)cc1)c1ccccc1` was tested. Which GI50 did it give?
Its GI50 is 1.73 µM.

What about the TGI of the same molecule?
Its TGI is 24.8 µM.

For `CC[C@]12C=CCN3CC[C@@]4(c5ccc(OC)cc5N(C)[C@H]4[C@@](O)(C(=O)OC)[C@@H]1OC(=O)CCC[P+](c1ccccc1)(c1ccccc1)c1ccccc1)[C@@H]32`, which GI50 is on record?
The GI50 was 1.04 µM and 1.1 µM.

What about the TGI of the same molecule?
The TGI was 4.75 µM and 3.68 µM.

`CC(=O)OC1Oc2ccccc2-c2oc(=O)c(-c3cc(=O)oc4cc(O)ccc34)cc21` (stereo not drawn) was tested. Which GI50 did it give?
The GI50 was 4.33 µM.

And the TGI?
The TGI was 20.1 µM.

With `CC(C)(C)C(=O)OCOP(=O)(OCOC(=O)C(C)(C)C)C1CCCN(O)C1=O` (stereo not drawn) as the molecule, how does the GI50 read?
Its GI50 is 0.431 µM.

And the TGI?
Its TGI is 2.69 µM.

Which GI50 does the source give for `CC(SC(C)C(=O)N/N=C/c1cccc(Cl)c1)C(=O)N/N=C\c1cccc(Cl)c1` (stereo not drawn) here?
Its GI50 is 11.2 µM.

What about the TGI of the same molecule?
Its TGI is 42 µM.

What does the source list for `Cc1ccc(Cl)cc1Nc1nc(C(F)(F)F)ccc1C(=O)N1CCN(c2ccc(F)cc2)CC1`?
GI50: 9.91 µM; TGI: 46.6 µM

`COC(=O)c1cc2c(cc1O)[C@@H](NC(C)=O)CCc1cc(OC)c(OC)c(OC)c1-2` was tested. Which GI50 did it give?
Its GI50 is 0.0472 µM.

And the TGI?
The TGI was 81.8 µM.

Test system: NCI-H522 lung
Assay: growth of human tumour cells (NCI), 48 h

How did the TGI turn out when `O=C(CCCn1ccnc1[N+](=O)[O-])NCCn1cncc1[N+](=O)[O-]` was run?
The TGI was over 100 µM.

How did the GI50 turn out when `Cn1cc(C2=C(c3ccc4ccccc4c3)C(=O)NC2=O)c2ccccc21` was run?
The GI50 was 12.1 µM.

What about the TGI of the same molecule?
Its TGI is over 25 µM.

How did the GI50 turn out when `O=C(OCc1ccc2cccc(O)c2n1)N1CCN(C(=O)c2cc3cc(F)ccc3[nH]2)CC1` was run?
Its GI50 is 1.02 µM.

What about the TGI of the same molecule?
Its TGI is 2.47 µM.

What does the source list for `C[As](C)SC1OC(CO)C(O)C1O` (stereo not drawn)?
GI50: 0.167 µM; TGI: 0.477 µM

How did the GI50 turn out when `Cn1c(=O)c2c(nc(Nc3cc(=O)[nH]c(=O)[nH]3)n2Cc2ccccc2)n(C)c1=O` was run?
Its GI50 is over 100 µM.

What about the TGI of the same molecule?
The TGI was over 100 µM.

`COc1ccc2c(c1)CCC1C2CC[C@@]2(C)C1CC1=CC(COC(C)=O)C3C(=O)c4ccccc4C(=O)C3C12` (stereo partly drawn) was tested. Which GI50 did it give?
Its GI50 is over 100 µM.

What about the TGI of the same molecule?
Its TGI is over 100 µM.

`C=C(F)C(=O)N1CCN(c2nc(OC[C@@H]3CCCN3C)nc3c2CCN(c2cccc4cccc(Cl)c24)C3)C[C@@H]1CC#N` was tested. Which GI50 did it give?
The GI50 was 0.441 µM.

What about the TGI of the same molecule?
The TGI was 1.73 µM.

Which GI50 does the source give for `Cc1c2cccnc2c(C)c2c1c1cc(CO)ccc1n2C` here?
The GI50 was 1.98 µM.

What about the TGI of the same molecule?
Its TGI is 6.53 µM.

How did the GI50 turn out when `CC/C(=C(/c1ccc(OCCN(C)C)cc1)c1ccc(OC(=O)CCCCC(=O)c2c(C)[nH]c(/C=C3\N=C(c4ccc[nH]4)C=C3OC)c2C)cc1)c1ccccc1` was run?
Its GI50 is 3.59 µM.

And the TGI?
Its TGI is 14.3 µM.

With `CC[C@]12C=CCN3CC[C@@]4(c5ccc(OC)cc5N(C)[C@H]4[C@@](O)(C(=O)OC)[C@@H]1OC(=O)CCC[P+](c1ccccc1)(c1ccccc1)c1ccccc1)[C@@H]32` as the molecule, how does the GI50 read?
Its GI50 is 0.247 µM and 0.342 µM.

And the TGI?
Its TGI is 5.37 µM and 1.41 µM.
